According to US20210353769A1, “SURFACE MODIFIED EXTRACELLULAR VESICLES” (City University of Hong Kong, priority 2018, published 2021):

Test system: H358 cells
Assay: Uptake of Calcein AM-labelled RBCEVs by H358 cells (FACS)
Assay type: cell-based, human
Settings: 5-20 μg/ml Filipin
Description: To test the uptake of RBCEVs by the cells, we labelled RBCEVs with Calcein AM, a fluorescent dye, and sortagged the labelled RBCEVs with biotinylated EGFR-targeting peptide as described above. The labelled and sortagged RBCEVs were washed extensively with SEC and 2 rounds of centrifugation. We incubated H358 cells with a suboptimal dose of the labelled RBCEVs and analysed Calcein AM fluorescence in the cells after 2 hours of incubation (FIG. 8C). The fluorescent background was determined based on the supernatant of the last wash (flowthrough) of the labelled RBCEVs.
In a shorter uptake assay, H358, HCC827, MOLM13 and THP1 cells were incubated with Calcein AM-labelled RBCEVs for 1 to 2 hours at 37° C. To identify the route of EV uptake, we added 25-100 μM EIPA, 5-20 μg/ml Filipin, 0.25-1 μM Wortmannin.
Flow cytometry of latex beads or cells in FACS buffer was performed using a CytoFLEX-S cytometer (Beckman Coulter) and analyzed using Flowjo V10 (Flowjo, USA). The beads or cells were initially gated based on FSC-A and SSC-A to exclude the debris and dead cells (low FSC-A). The cells were further gated based on FSC-width vs. FSC-height, to exclude doublets and aggregates.

## CCCCC[C@@H](O)[C@H]1C(=O)O[C@H](C)[C@@H](O)/C=C/C=C/C=C/C=C/C=C(\C)[C@@H](O)C[C@H](O)C[C@H](O)C[C@H](O)C[C@H](O)C[C@H](O)C[C@@H]1O [Filipin]
  effect of endocytosis inhibitor on uptake of ET-ligated RBCEVs: reduce the uptake
